Publication PMC3292553, “Flavonoid Glycosides Isolated from Unique Legume Plant Extracts as Novel Inhibitors of Xanthine Oxidase” (PLoS ONE, 2012)

Biological target: T1, Xanthine oxidase from bovine milk (Bos taurus, UniProt P80457)
T1 construct: Xanthine oxidase from bovine milk and allopurinol were purchased from Sigma-Aldrich; purchased Sigma-Aldrich (St Louis MO, USA); host or cells: bovine milk (natural source)
Assay: Assessment of XO activity (formation of uric acid from xanthine, 295 nm)
Type: biochemical
Conditions: pure compounds; for Inhibition type: kinetic analysis; for Ki: kinetic analysis (Lineweaver-Burk, Grafit 6); for IC50: XO inhibition
Protocol: XO activity was determined by measuring the formation of uric acid from xanthine within a set time. Changes in the levels of uric acid produced through the presence of the test samples allow the potency of inhibitors to be assessed. Initially the effect of the polyphenolic fractions and compounds on the inhibition of enzymatic activity was assessed at substrate concentration where maximum velocity was obtained. All initial reaction rates were in the linear scale and were measured over the first 4 min of the reaction. Each assay was performed in triplicates and the optical density was measured using a Hitachi U-1500 Spectrophotometer (San Jose, USA). […] The reaction was initiated through the addition of 43 mU unit of XO diluted in H2O. […] Control samples were prepared identically to the test samples without the addition of the specimen.
The measured absorbance was corrected for the contribution of the tested fractions and the pure polyphenolic compounds.
Statistical computations were carried out using SPSS 13.0 software. For statistical analysis, one-way ANOVA was applied followed by Dunnett's test for multiple pair-wise comparisons. Differences were considered significant at p<0.05. The steady state kinetic parameters (Km and Vmax) were determined (under standard assays conditions) by analyzing formation of uric acid from xanthine under initial rate conditions using the Lineweaver-Burk linearization of the Micaelis-Menten equation. The Ki values and the apparent kinetic parameters Km and Vmax were analyzed with the statistic package Grafit 6 (Erithacus Software, Ltd., Horley, UK).

T1 sequence (P80457 whole entry): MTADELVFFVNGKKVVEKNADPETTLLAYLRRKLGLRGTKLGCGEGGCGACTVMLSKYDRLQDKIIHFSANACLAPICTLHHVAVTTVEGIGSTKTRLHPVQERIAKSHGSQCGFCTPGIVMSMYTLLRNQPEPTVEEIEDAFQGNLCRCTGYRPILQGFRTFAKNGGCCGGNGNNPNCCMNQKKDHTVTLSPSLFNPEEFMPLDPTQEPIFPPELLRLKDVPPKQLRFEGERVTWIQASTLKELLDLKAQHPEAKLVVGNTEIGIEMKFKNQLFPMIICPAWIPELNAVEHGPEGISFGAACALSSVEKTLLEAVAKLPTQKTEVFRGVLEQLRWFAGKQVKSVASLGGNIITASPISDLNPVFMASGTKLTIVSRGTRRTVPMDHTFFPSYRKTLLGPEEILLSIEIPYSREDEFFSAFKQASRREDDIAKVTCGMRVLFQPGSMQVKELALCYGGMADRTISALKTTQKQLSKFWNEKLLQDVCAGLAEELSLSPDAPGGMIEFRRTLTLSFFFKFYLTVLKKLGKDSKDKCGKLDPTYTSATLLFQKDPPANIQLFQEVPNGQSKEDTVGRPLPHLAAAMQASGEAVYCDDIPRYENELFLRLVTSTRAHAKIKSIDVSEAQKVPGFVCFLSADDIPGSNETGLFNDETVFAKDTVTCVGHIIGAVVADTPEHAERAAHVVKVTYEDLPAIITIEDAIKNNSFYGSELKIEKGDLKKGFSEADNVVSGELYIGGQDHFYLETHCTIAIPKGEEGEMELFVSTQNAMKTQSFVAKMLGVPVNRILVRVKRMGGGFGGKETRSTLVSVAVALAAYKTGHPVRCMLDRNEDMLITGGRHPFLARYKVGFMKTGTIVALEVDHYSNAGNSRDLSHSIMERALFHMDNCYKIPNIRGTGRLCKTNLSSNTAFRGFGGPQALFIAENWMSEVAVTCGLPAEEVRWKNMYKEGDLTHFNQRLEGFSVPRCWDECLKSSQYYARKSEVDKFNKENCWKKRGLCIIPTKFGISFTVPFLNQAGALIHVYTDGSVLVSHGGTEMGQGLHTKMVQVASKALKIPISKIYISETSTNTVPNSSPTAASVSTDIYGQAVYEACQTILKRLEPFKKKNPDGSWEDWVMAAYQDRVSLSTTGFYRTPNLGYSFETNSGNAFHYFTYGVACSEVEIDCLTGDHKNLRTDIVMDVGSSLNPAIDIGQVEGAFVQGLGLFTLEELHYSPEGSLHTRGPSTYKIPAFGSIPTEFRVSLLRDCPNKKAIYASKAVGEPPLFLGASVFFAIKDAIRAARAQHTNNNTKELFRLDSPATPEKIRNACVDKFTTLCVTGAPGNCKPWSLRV

| SMILES | Inhibition type | Ki [µM] | IC50 [µM] |
| --- | --- | --- | --- |
| Oc1ncnc2[nH]ncc12 [Allopurinol, 4-hydroxypyrazolo (3,4-d) pyrimidine, reference compound] | Competitive | – | – |
| CC1=CC(=O)CC(C)(C)C1(O)C=CC(C)OC1OC(CO)C(O)C(O)C1O [Compound 3, (6S,9R)-Roseoside] | Non competitive | 767 | – |
| CC1OC(Oc2cc(O)c3c(=O)c(OC4OC(CO)C(O)C(O)C4OC4OC(C)C(O)C(O)C4O)c(-c4ccc(O)cc4)oc3c2)C(O)C(O)C1O [Compound 4a, Kaempferol 3-O-[α-L-rhamnopyranosyl(1→2)-β-D-glucopyranosyl]-7-O-α-L-rhamnopyranoside] | Non competitive | 651 | – |
| CC1OC(Oc2cc(O)c3c(=O)c(OC4OC(CO)C(O)C(O)C4O)c(-c4ccc(O)cc4)oc3c2)C(O)C(O)C1O [Compound 5, Kaempferol 3-O-β-D-galactopyranosyl-7-O-α-L-rhamnopyranoside] | Non competitive | 345 | – |

The next lines start with the values.

| Inhibition type | Ki [µM] | IC50 [µM] | SMILES |
| --- | --- | --- | --- |
| Non competitive | 115 | – | CC1OC(Oc2cc(O)c3c(=O)c(OC4OC(CO)C(O)C(O)C4OC4OC(C)C(O)C(O)C4O)c(-c4ccc(O)c(O)c4)oc3c2)C(O)C(O)C1O [Compound 1, Quercetin 3-O-[α-L-rhamnopyranosyl(1→2)-β-D-galactopyranosyl]-7-O-α-L-rhamnopyranoside] |
| – | 186 | – | CC1OC(Oc2cc(O)c3c(=O)c(OC4OC(CO)C(O)C(O)C4OC4OC(C)C(O)C(O)C4O)c(-c4ccc(O)c(O)c4)oc3c2)C(O)C(O)C1O [Compound 2, Quercetin 3-O[α-L-rhamnopyranosyl(1→2)-β-D-glucopyranosyl]-7-O-α-L-rhamnopyranoside] |
| – | 50 | – | CC1OC(Oc2cc(O)c3c(=O)c(OC4OC(CO)C(O)C(O)C4OC4OC(C)C(O)C(O)C4O)c(-c4ccc(O)cc4)oc3c2)C(O)C(O)C1O [Compound 4b, Kaempferol 3-O-[α-L-rhamnopyranosyl(1→2)-β-D-galactopyranosyl]-7-O-α-L-rhamnopyranoside] |
| Non competitive | 210 | 112 | CC1OC(Oc2cc(O)c3c(=O)c(OC4OCC(O)C(O)C4O)c(-c4ccc(O)cc4)oc3c2)C(O)C(O)C1O [Compound 9, Kaempferol 3-O-α-L-arabinopyranosyl-7-O-α-L-rhamnopyranoside] |
| Non competitive | 177 | 70.6 | CC1OC(Oc2cc(O)c3c(=O)c(OC4OC(CO)C(O)C(O)C4O)c(-c4ccc(O)cc4)oc3c2)C(O)C(O)C1O [Compound 10, Kaempferol 3-O-β-D-glucopyranosyl-7-O-α-L-rhamnopyranoside] |
